According to PMC12819154, “High-throughput peptide-centric local stability assay extends protein–ligand identification to membrane proteins, tissues and bacteria” (Nature Structural & Molecular Biology, 2025):

Tests used:
Format in all cases: biochemical
GuaC = molecular target: T1, GuaC (Escherichia coli, UniProt P60560); experiment: HT-PELSA limited trypsin proteolysis MS, dose-response; conditions: desalted E. coli lysate, Mg2+ (10 mM MgCl2 added), 25 °C, 30 min; allosteric
T1 construct: endogenous full-length protein in desalted E. coli lysate
T1 sequence (P60560 1-347): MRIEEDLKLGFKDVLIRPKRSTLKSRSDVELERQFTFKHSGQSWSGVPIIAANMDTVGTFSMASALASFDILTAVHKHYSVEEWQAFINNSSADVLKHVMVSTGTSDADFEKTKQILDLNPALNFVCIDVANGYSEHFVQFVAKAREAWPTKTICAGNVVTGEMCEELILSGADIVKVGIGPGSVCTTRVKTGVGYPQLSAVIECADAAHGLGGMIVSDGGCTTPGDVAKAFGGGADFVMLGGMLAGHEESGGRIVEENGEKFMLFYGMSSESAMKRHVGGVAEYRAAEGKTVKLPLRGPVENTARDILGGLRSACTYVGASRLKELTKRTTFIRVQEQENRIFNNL

pbpG = molecular target: T2, pbpG (Escherichia coli, UniProt P0AFI5); experiment: HT-PELSA limited trypsin proteolysis MS, single concentration; conditions: crude E. coli lysate, 10 μM ampicillin, 25 °C, 30 min
T2 construct: endogenous protein in crude E. coli lysate
T2 sequence (P0AFI5 26-310): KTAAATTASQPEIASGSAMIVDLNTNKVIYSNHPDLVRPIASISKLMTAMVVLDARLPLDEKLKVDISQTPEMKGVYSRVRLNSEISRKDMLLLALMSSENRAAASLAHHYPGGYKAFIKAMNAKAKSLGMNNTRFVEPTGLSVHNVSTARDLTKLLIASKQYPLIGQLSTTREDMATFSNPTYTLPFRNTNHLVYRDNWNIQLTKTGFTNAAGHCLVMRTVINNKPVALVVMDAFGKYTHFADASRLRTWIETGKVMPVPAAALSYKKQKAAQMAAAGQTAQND

mrcA = molecular target: T3, mrcA (Escherichia coli, UniProt P02918); experiment: as above; conditions: crude E. coli lysate, 10 μM ampicillin, 25 °C, 30 min; C-terminal transpeptidase domain
T3 construct: endogenous membrane protein in crude E. coli lysate
T3 sequence (P02918 1-850): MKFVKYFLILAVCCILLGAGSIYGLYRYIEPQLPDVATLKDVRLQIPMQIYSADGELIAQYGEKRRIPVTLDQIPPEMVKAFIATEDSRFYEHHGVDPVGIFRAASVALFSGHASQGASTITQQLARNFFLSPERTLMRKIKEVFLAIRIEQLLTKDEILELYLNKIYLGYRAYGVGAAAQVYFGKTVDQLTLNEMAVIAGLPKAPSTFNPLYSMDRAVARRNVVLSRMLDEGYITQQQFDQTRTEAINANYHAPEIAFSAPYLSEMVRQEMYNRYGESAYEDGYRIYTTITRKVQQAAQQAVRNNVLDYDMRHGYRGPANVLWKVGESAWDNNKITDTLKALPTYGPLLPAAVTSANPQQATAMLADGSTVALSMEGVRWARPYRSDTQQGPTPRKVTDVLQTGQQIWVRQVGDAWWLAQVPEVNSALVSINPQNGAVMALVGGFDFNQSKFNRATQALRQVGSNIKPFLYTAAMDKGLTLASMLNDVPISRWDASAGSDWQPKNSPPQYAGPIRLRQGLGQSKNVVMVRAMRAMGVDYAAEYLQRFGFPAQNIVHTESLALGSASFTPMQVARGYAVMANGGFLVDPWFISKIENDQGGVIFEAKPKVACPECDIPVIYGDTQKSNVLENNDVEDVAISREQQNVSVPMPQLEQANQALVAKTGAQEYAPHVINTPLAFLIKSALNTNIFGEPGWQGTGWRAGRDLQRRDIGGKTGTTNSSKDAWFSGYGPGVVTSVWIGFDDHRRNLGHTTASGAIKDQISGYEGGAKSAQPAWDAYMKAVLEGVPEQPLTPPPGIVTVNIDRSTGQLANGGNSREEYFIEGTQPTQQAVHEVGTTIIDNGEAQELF

mrcB = molecular target: T4, mrcB (Escherichia coli, UniProt P02919); experiment: as above; conditions: crude E. coli lysate, 10 μM ampicillin, 25 °C, 30 min; C-terminal transpeptidase domain
T4 construct: endogenous membrane protein in crude E. coli lysate
T4 sequence (P02919 1-844): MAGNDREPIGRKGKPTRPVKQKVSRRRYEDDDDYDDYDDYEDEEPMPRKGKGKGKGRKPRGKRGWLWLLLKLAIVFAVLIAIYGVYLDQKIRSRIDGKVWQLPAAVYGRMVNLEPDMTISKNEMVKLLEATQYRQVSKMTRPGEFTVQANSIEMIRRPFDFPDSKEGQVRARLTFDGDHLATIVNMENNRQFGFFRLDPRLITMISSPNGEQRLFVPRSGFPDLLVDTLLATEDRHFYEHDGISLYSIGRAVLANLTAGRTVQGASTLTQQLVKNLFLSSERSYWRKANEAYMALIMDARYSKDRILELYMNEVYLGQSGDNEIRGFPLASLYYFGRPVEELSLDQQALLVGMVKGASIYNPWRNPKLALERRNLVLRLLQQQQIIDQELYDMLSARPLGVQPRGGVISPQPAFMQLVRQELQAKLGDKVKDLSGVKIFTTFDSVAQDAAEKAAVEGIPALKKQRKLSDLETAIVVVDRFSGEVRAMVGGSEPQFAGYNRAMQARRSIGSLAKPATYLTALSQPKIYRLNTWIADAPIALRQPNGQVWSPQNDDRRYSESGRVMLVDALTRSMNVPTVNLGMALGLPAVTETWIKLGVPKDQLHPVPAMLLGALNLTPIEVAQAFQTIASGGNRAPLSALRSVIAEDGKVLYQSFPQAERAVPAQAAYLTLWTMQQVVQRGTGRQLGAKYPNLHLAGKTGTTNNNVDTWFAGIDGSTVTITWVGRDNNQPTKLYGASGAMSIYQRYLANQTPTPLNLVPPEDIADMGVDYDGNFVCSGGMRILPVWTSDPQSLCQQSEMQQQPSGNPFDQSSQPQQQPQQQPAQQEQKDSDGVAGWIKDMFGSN

ftsI = molecular target: T5, ftsI (Escherichia coli, UniProt P0AD68); experiment: as above; conditions: crude E. coli lysate, 10 μM ampicillin, 25 °C, 30 min
T5 construct: endogenous membrane protein in crude E. coli lysate
T5 sequence (P0AD68 1-577): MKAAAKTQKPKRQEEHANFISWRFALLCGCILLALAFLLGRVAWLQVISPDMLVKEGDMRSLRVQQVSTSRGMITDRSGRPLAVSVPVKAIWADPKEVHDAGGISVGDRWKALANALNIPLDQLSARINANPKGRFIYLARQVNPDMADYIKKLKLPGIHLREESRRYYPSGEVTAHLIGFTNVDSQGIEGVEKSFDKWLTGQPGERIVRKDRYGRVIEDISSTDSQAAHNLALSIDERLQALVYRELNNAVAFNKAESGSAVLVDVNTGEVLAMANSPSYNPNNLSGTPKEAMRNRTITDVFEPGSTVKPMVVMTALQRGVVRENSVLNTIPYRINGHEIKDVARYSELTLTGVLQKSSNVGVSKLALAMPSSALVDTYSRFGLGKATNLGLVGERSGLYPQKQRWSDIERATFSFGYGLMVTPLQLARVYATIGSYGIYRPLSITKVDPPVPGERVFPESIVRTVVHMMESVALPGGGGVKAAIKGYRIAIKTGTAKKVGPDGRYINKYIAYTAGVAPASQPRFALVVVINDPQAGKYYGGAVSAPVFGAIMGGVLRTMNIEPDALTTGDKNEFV

dacB = molecular target: T6, dacB (Escherichia coli, UniProt P24228); experiment: as above; conditions: crude E. coli lysate, 10 μM ampicillin, 25 °C, 30 min
T6 construct: endogenous protein in crude E. coli lysate

α subunit Prkaa2 of Ampk = molecular target: T7, α subunit Prkaa2 of Ampk (Mus musculus, UniProt Q8BRK8); experiment: HT-PELSA limited trypsin proteolysis MS, dose-response; conditions: mouse heart lysate in PBS, 25 °C, 30 min, 0.2 nM-20 μM
T7 construct: endogenous catalytic subunit of AMPK in mouse heart lysate

Csn1ke = molecular target: T8, Csn1ke (Mus musculus, UniProt Q9JMK2); experiment: as above; conditions: mouse heart lysate in PBS, 25 °C, 30 min, 0.2 nM-20 μM
T8 construct: gene Csnk1e; endogenous protein in mouse heart lysate; printed Csn1ke read as Csnk1e
T8 sequence (Q9JMK2 1-416): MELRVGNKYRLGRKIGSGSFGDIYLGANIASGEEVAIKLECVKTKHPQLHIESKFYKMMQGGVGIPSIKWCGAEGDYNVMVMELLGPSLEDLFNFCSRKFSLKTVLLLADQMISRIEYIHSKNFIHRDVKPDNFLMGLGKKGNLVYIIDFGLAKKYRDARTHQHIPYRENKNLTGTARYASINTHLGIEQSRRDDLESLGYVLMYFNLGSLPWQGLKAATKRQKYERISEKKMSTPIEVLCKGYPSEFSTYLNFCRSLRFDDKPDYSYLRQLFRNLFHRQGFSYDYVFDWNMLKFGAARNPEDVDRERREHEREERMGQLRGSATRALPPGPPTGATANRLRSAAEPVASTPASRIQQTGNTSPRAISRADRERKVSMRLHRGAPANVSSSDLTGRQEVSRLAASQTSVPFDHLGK

T6 sequence (P24228 21-477): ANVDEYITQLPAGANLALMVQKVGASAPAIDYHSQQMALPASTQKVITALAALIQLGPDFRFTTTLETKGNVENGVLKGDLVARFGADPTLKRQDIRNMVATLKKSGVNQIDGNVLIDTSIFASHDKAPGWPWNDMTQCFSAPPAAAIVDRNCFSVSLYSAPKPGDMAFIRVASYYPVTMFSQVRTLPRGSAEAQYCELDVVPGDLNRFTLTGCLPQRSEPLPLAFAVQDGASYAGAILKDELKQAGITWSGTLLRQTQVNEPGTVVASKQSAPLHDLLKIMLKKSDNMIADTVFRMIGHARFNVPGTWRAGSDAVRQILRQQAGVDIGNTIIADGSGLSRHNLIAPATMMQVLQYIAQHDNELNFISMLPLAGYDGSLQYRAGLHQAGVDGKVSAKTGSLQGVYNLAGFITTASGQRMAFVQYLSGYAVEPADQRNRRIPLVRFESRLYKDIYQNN
T7 sequence (Q8BRK8 whole entry): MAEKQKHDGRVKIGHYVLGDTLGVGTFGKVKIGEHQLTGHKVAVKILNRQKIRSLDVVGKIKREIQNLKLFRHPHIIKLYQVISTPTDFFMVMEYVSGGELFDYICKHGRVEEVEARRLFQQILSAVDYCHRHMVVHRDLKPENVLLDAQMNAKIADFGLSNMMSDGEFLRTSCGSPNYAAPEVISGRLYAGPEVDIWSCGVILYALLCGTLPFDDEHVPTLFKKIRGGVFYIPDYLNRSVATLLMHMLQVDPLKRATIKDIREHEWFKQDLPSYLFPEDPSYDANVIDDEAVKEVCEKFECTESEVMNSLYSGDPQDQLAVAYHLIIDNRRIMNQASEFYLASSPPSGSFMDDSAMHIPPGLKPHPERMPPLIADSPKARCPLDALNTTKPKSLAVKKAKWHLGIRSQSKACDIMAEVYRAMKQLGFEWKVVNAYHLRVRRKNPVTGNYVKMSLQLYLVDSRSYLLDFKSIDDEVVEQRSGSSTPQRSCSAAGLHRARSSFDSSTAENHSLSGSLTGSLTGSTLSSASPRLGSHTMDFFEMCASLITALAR

Nc1ncnc2c1ncn2[C@@H]1O[C@H](COP(=O)(O)OP(=O)(O)OP(=O)(O)O)[C@@H](O)[C@H]1O [ATP]
pEC50 (GuaC): Among the non-annotated ATP binders, we identify GuaC

CC1(C)S[C@@H]2[C@H](NC(=O)[C@H](N)c3ccccc3)C(=O)N2[C@H]1C(=O)O [ampicillin]
HT-PELSA limited trypsin proteolysis MS, single concentration (pbpG): HT-PELSA identified five known targets of ampicillin (mrcA, mrcB, ftsI, dacB and pbpG | HT-PELSA limited trypsin proteolysis MS, single concentration (mrcA): HT-PELSA identified five known targets of ampicillin (mrcA, mrcB, ftsI, dacB and pbpG | HT-PELSA limited trypsin proteolysis MS, single concentration (mrcB): HT-PELSA identified five known targets of ampicillin (mrcA, mrcB, ftsI, dacB and pbpG | HT-PELSA limited trypsin proteolysis MS, single concentration (ftsI): HT-PELSA identified five known targets of ampicillin (mrcA, mrcB, ftsI, dacB and pbpG | HT-PELSA limited trypsin proteolysis MS, single concentration (dacB): HT-PELSA identified five known targets of ampicillin (mrcA, mrcB, ftsI, dacB and pbpG

CCN(CC)CCNC(=O)c1c(C)[nH]c(/C=C2\C(=O)Nc3ccc(F)cc32)c1C [sunitinib]
pEC50 (α subunit Prkaa2 of Ampk): the α subunit Prkaa2 of Ampk, Camk2g, Csn1ke and Csnk1g2 | pEC50 (Csn1ke): the α subunit Prkaa2 of Ampk, Camk2g, Csn1ke and Csnk1g2
